Laboratory results reported in patent publication US4526989A, “1,4-Bis (substituted-amino)-5,8-dihydroxy-anthraquinones and leuco bases thereof” (priority 1979, dated 1985).
Several values for one entry are separate records, joined by “and”; a condition that tells them apart may be missing. Equal entries are not always repeated. Where two headings read alike, the source gives them in different places.

How the values were obtained:
[1] = test system: lymphocytic leukemia P388; assay: Lymphocytic leukemia P388 test (oral drug administration); assay type: in vivo, DBA/2 mice; details: for T/C × 100: efficacy ≥125%
Experimental: The animals used are DBA/2 mice all of one sex, weighing a minimum of 17 g. and all within a 3 gram weight range. There are 5 or 6 animals per test group. The tumor transplant is by intraperitoneal injection of 0.1 ml. of dilute ascitic fluid containing 10^6 cells of lymphocytic leukemia P388. The test compounds are administered intraperitoneally on days one, 5 and 9 (relative to tumor inoculation) at various doses. The animals are weighed and survivors are recorded on a regular basis for 30 days. The median survival time and the ratio of survival time for treated (T)/control (C) animals are calculated. […] The results of this test with representative compounds of the present invention appear in Table I. The criterion for efficacy is T/C×100≥125%.
The procedure used is the same as for the previously described test for lymphocytic leukemia P388 except that the test compounds are administered orally at various doses rather than intraperitoneally. The criterion for efficacy is T/C×100≥125%.

[2] = test system: melanotic melanoma B16; assay: Melanotic Melanoma B16 test; assay type: in vivo, C57BC/6 mice
How it was run: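 C57BC/6 mice (10 per group) were implanted i.p. with B16 melanoma homogenate, then dosed i.p. on days 1–9 at various doses.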

[3] = test system: lymphocytic leukemia P388; assay: Lymphocytic leukemia P388 test (intraperitoneal administration); assay type: in vivo, DBA/2 mice
How it was run: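 DBA/2 mice, single sex, 5-6 per group, inoculated i.p. with 10^6 P388 leukemia cells. Compounds given i.p. at various doses on days 1, 5 and 9; survival followed 30 days, reporting median survival time and treated/control (T/C) survival ratio.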

[4] = test system: Ridgway Osteogenic Sarcoma; assay: Ridgway Osteogenic Sarcoma; assay type: in vivo, AKD2 F1 /J mice; details: for % Inhibition Tumor Growth / % Showing 50% Tumor Regression / No. Without Tumors/No. Survivors / Tumor: 7 days after therapy stopped; for Median Survival / T/C: 63 days after therapy stopped
Experimental: The animals used are AKD2 F1 /J mice, all of the same sex, weighing a minimim of 17 g. and all within a three-gram weight range. There are normally 8 animals per test group. The tumor is administered subcutaneously by trocar as five 2-mm. fragments per mouse. The test compounds are administered intraperitoneally every 4 days for a total of 6 inoculations beginning on day 15 (relative to tumor inoculation) at various doses. The animals are weighed and survivors are recorded on a regular basis for 90 days. The regression of tumors is recorded in all test animals.

[5] = 60 mg./kg., administered intraperitoneally, positive control
[6] = Mus musculus, P388, ip, read-out: T/C × 100
[7] = 6 mg./kg. i.p., days 1 through 9
[8] = 25 mg./kg. i.p., days 1 through 9
[9] = 50 mg./kg. i.p., days 1 through 9
[10] = Mus musculus, ip, 6 mg./kg. i.p., days 1 through 9, efficacy ≥125%, read-out: T/C × 100
[11] = Mus musculus, ip, 25 mg./kg. i.p., days 1 through 9, efficacy ≥125%, read-out: T/C × 100
[12] = Mus musculus, ip, 50 mg./kg. i.p., days 1 through 9, efficacy ≥125%, read-out: T/C × 100
[13] = 25 mg./kg. i.p., days 1, 5 and 9
[14] = 50 mg./kg. i.p., days 1, 5 and 9
[15] = 100 mg./kg. i.p., days 1, 5 and 9
[16] = 200 mg./kg. i.p., days 1, 5 and 9
[17] = Mus musculus, P388, ip, 25 mg./kg. i.p., days 1, 5 and 9, efficacy ≥125%, read-out: T/C × 100
[18] = Mus musculus, P388, ip, 50 mg./kg. i.p., days 1, 5 and 9, efficacy ≥125%, read-out: T/C × 100
[19] = Mus musculus, P388, ip, 100 mg./kg. i.p., days 1, 5 and 9, efficacy ≥125%, read-out: T/C × 100
[20] = 12 mg./kg. i.p., days 1, 5 and 9
[21] = Mus musculus, P388, ip, 12 mg./kg. i.p., days 1, 5 and 9, efficacy ≥125%, read-out: T/C × 100

Structure (SMILES): O=c1[nH]cc(F)c(=O)[nH]1 [5-Fluorouracil, reference compound]
- Median Survival Time [1, 5]: 19.0 days and 20.0 days
- T/C × 100 [1, 5]: 190% and 174%
- response vs control in vivo at 60 mg/kg ([2]; Mus musculus, ip, 60 mg./kg. injection, positive control, efficacy ≥125%, read-out: T/C × 100): 128%
- response vs control in vivo at 40 mg/kg ([3]; Mus musculus, P388, ip, 40 mg./kg. injection, positive control, efficacy ≥125%, read-out: T/C × 100): 164% and 155%
- response vs control in vivo at 60 mg/kg [3, 6]: 200%

Structure (SMILES): CC(CNC1=C2C(=O)c3c(O)ccc(O)c3C(=O)C2=C(NCC(C)N(C)C)CC1)N(C)C (stereo not drawn) [Leuco-1,4-bis[2-dimethylaminopropylamino]-5,8-dihydroxyanthraquinone]
- Median Survival Time [2, 7]: 19.5 days
- Median Survival Time ([2]; 12.5 mg./kg. i.p., days 1 through 9): 20.5 days
- Median Survival Time [2, 8]: 24.5 days
- Median Survival Time [2, 9]: 28.5 days
- Median Survival Time ([2]; 100 mg./kg. i.p., days 1 through 9): 21.0 days
- response vs control in vivo at 6 mg/kg [2, 10]: 115%
- response vs control in vivo at 12.5 mg/kg ([2]; Mus musculus, ip, 12.5 mg./kg. i.p., days 1 through 9, efficacy ≥125%, read-out: T/C × 100): 121%
- response vs control in vivo at 25 mg/kg [2, 11]: 144%
- response vs control in vivo at 50 mg/kg [2, 12]: 168%
- response vs control in vivo at 100 mg/kg ([2]; Mus musculus, ip, 100 mg./kg. i.p., days 1 through 9, efficacy ≥125%, read-out: T/C × 100): 124%
- Median Survival Time ([3]; 12.5 mg./kg. i.p., days 1, 5 and 9): 11.0 days
- Median Survival Time [3, 13]: 13.0 days
- Median Survival Time [3, 14]: 14.0 days
- Median Survival Time [3, 15]: 15.0 days
- Median Survival Time [3, 16]: 18.0 days
- response vs control in vivo at 200 mg/kg [3, 6]: 200%
- response vs control in vivo at 12.5 mg/kg ([3]; Mus musculus, P388, ip, 12.5 mg./kg. i.p., days 1, 5 and 9, efficacy ≥125%, read-out: T/C × 100): 122%
- response vs control in vivo at 25 mg/kg [3, 17]: 144%
- response vs control in vivo at 50 mg/kg [3, 18]: 156%
- response vs control in vivo at 100 mg/kg [3, 19]: 167%

Structure (SMILES): CCN(CC)CCNC1=C2C(=O)c3c(O)ccc(O)c3C(=O)C2=C(NCCN(CC)CC)CC1 [Leuco-1,4-bis[(2-diethylaminoethyl)amino]-5,8-dihydroxyanthraquinone]
- Median Survival Time [2, 9]: 23.0 days
- response vs control in vivo at 50 mg/kg [2, 12]: 139%
- Median Survival Time [3, 20]: 12.0 days
- Median Survival Time [3, 13]: 13.0 days
- Median Survival Time [3, 14]: 15.0 days
- Median Survival Time [3, 15]: 17.0 days
- Median Survival Time [3, 16]: 17.0 days
- response vs control in vivo at 12 mg/kg [3, 21]: 126%
- response vs control in vivo at 25 mg/kg [3, 17]: 137%
- response vs control in vivo at 50 mg/kg [3, 18]: 158%
- response vs control in vivo at 100 mg/kg [3, 19]: 179%
- response vs control in vivo at 200 mg/kg ([3]; Mus musculus, P388, ip, 200 mg./kg. i.p., days 1, 5 and 9, efficacy ≥125%, read-out: T/C × 100): 179%

Structure (SMILES): CN(C)CCNC1=C2C(=O)c3c(O)ccc(O)c3C(=O)C2=C(NCCN(C)C)CC1 [Leuco-1,4-bis[(2-dimethylaminoethyl)amino]-5,8-dihydroxy-anthraquinone]
- Median Survival Time ([1]; 12 mg./kg. oral): 12.5 days
- T/C × 100 ([1]; 12 mg./kg. oral): 125%
- Median Survival Time ([1]; 25 mg./kg. oral): 13.5 days
- T/C × 100 ([1]; 25 mg./kg. oral): 135%
- Median Survival Time ([1]; 50 mg./kg. oral): 16.0 days
- T/C × 100 ([1]; 50 mg./kg. oral): 160%
- Median Survival Time ([2]; 3 mg./kg. i.p., days 1 through 9): 21.0 days
- Median Survival Time [2, 7]: 21.5 days
- Median Survival Time ([2]; 12 mg./kg. i.p., days 1 through 9): 23.0 days
- Median Survival Time [2, 8]: 25.0 days
- response vs control in vivo at 3 mg/kg ([2]; Mus musculus, ip, 3 mg./kg. i.p., days 1 through 9, efficacy ≥125%, read-out: T/C × 100): 127%
- response vs control in vivo at 6 mg/kg [2, 10]: 130%
- response vs control in vivo at 12 mg/kg ([2]; Mus musculus, ip, 12 mg./kg. i.p., days 1 through 9, efficacy ≥125%, read-out: T/C × 100): 139%
- response vs control in vivo at 25 mg/kg [2, 11]: 151%
- Median Survival Time ([3]; 1.5 mg./kg. i.p., days 1, 5 and 9): 13.0 days
- Median Survival Time ([3]; 3 mg./kg. i.p., days 1, 5 and 9): 14.5 days
- Median Survival Time ([3]; 6 mg./kg. i.p., days 1, 5 and 9): 16.0 days
- Median Survival Time [3, 20]: 17.5 days
- Median Survival Time [3, 13]: 19.0 days
- Median Survival Time [3, 14]: 24.5 days
- Median Survival Time [3, 15]: 24.5 days
- response vs control in vivo at 1.5 mg/kg ([3]; Mus musculus, P388, ip, 1.5 mg./kg. i.p., days 1, 5 and 9, efficacy ≥125%, read-out: T/C × 100): 130%
- response vs control in vivo at 3 mg/kg ([3]; Mus musculus, P388, ip, 3 mg./kg. i.p., days 1, 5 and 9, efficacy ≥125%, read-out: T/C × 100): 145%
- response vs control in vivo at 6 mg/kg ([3]; Mus musculus, P388, ip, 6 mg./kg. i.p., days 1, 5 and 9, efficacy ≥125%, read-out: T/C × 100): 160%
- response vs control in vivo at 12 mg/kg [3, 21]: 175%
- response vs control in vivo at 25 mg/kg [3, 17]: 190%
- response vs control in vivo at 50 mg/kg [3, 18]: 245%
- response vs control in vivo at 100 mg/kg [3, 19]: 245%

Structure (SMILES): CN(Cc1cnc2nc(N)nc(N)c2n1)c1ccc(C(=O)N[C@@H](CCC(=O)O)C(=O)O)cc1 [Methotrexate]
- % Inhibition Tumor Growth ([4]; 6 mg./kg. i.p.): 36%
- % Showing 50% Tumor Regression ([4]; 6 mg./kg. i.p.): 0%
- No. Without Tumors/No. Survivors ([4]; 6 mg./kg. i.p.): 0/4
- Tumor ([4]; 6 mg./kg. i.p.): 758 (mm.) 2
- Median Survival ([4]; 6 mg./kg. i.p.): 46 days
- % Inhibition Tumor Growth ([4]; 12 mg./kg. i.p.): 23%
- % Showing 50% Tumor Regression ([4]; 12 mg./kg. i.p.): 0%
- No. Without Tumors/No. Survivors ([4]; 12 mg./kg. i.p.): 0/5
- Tumor ([4]; 12 mg./kg. i.p.): 916 (mm.) 2
- Median Survival ([4]; 12 mg./kg. i.p.): 49 days
- % Inhibition Tumor Growth ([4]; 25 mg./kg. i.p.): 54%
- % Showing 50% Tumor Regression ([4]; 25 mg./kg. i.p.): 12%
- No. Without Tumors/No. Survivors ([4]; 25 mg./kg. i.p.): 1/6
- Tumor ([4]; 25 mg./kg. i.p.): 546 (mm.) 2
- Median Survival ([4]; 25 mg./kg. i.p.): 52.5 days
- T/C ([4]; 25 mg./kg. i.p.): 118%

Structure (SMILES): CC[C@]1(O)C[C@H]2CN(CCc3c([nH]c4ccccc34)[C@@](C(=O)OC)(c3cc4c(cc3OC)N(C=O)[C@H]3[C@@](O)(C(=O)OC)[C@H](OC(C)=O)[C@]5(CC)C=CCN6CC[C@]43[C@@H]65)C2)C1 [Vincristine]
- % Inhibition Tumor Growth ([4]; 0.5 mg./kg. i.p.): 93%
- % Showing 50% Tumor Regression ([4]; 0.5 mg./kg. i.p.): 57%
- No. Without Tumors/No. Survivors ([4]; 0.5 mg./kg. i.p.): 4/7
- Tumor ([4]; 0.5 mg./kg. i.p.): 77 (mm.) 2
- Median Survival ([4]; 0.5 mg./kg. i.p.): 83 days
- T/C ([4]; 0.5 mg./kg. i.p.): 186%
- % Inhibition Tumor Growth ([4]; 1.0 mg./kg. i.p.): 100%
- % Showing 50% Tumor Regression ([4]; 1.0 mg./kg. i.p.): 100%
- No. Without Tumors/No. Survivors ([4]; 1.0 mg./kg. i.p.): 6/6
- Tumor ([4]; 1.0 mg./kg. i.p.): 0 (mm.) 2
- Median Survival ([4]; 1.0 mg./kg. i.p.): 85 days
- T/C ([4]; 1.0 mg./kg. i.p.): 191%
- % Inhibition Tumor Growth ([4]; 1.5 mg./kg. i.p.): 100%
- % Showing 50% Tumor Regression ([4]; 1.5 mg./kg. i.p.): 100%
- No. Without Tumors/No. Survivors ([4]; 1.5 mg./kg. i.p.): 4/4
- Tumor ([4]; 1.5 mg./kg. i.p.): 0 (mm.) 2
- Median Survival ([4]; 1.5 mg./kg. i.p.): 68 days
- T/C ([4]; 1.5 mg./kg. i.p.): 153%
